{
  "source": "patent US20220401514A1",
  "about": "“ANTIMICROBIAL, BACTERIOPHAGE-DERIVED POLYPEPTIDES AND THEIR USE AGAINST GRAM-NEGATIVE AND ACID-FAST BACTERIA” (CONTRAFECT CORPORATION, priority 2019, published 2022)",
  "key": {"[1]": {"tested_on": "mature biofilms formed by P. aeruginosa strain ATCC 17647", "experiment": "Minimal Biofilm Eradicating Concentration (MBEC), Calgary Biofilm Device, crystal violet", "type": "cell-based, Pseudomonas aeruginosa", "description": "Biofilms are then washed and treated with e.g., a 2-fold dilution series of the lysin in TSBg at e.g., 37° C. for 24 hours. After treatment, wells are washed, air-dried at e.g., 37° C. and stained with e.g., 0.05% crystal violet for 10 minutes.\nDetermination of Minimal Biofilm Eradicating Concentrations (MBEC). […] Biofilms were washed and treated with a 2-fold dilution series of each peptide in TSBg at 37° C. for 16 hours. […] The OD600 of extracted crystal violet was determined."}, "[2]": {"tested_on": "P. aeruginosa strain CFS-1292", "experiment": "Time-kill assay in CAA with 2.5% human serum", "type": "cell-based, Pseudomonas aeruginosa", "conditions": "for Loss of bacterial viability: CAA with […] human serum, vs untreated controls", "description": "Time-Kill Assay of Chp Peptide Activity. […] Exponential phase bacteria were then diluted 1:100 into CAA/HuS and peptide was added at a final concentration of either 1 or 10 μg/mL. Control cultures were included with no peptide added (i.e., buffer control)."}},
  "data": [
    {"sequence": "MARRYRLSRRRSRRLFSRTALRMHRRNRLRRIMRGGIRF [Chp4]", "values": [
      {"measurement": "MBEC", "setting": "[1]; MBEC assay format, summary statement, strain not stated there", "result": 0.25, "unit": "µg/mL"},
      {"measurement": "MBEC", "setting": "[1]; P. aeruginosa ATCC 17647 mature biofilm, tryptic soy broth with 2% glucose", "result": 0.25, "unit": "µg/mL"},
      {"measurement": "Loss of bacterial viability", "setting": "[2]; 1 μg/mL, 1 hour", "result": ">3.5", "unit": "log10 CFU/mL"},
      {"measurement": "Loss of bacterial viability", "setting": "[2]; 1 μg/mL, 3 hours", "result": ">4", "unit": "log10 CFU/mL"},
      {"measurement": "Loss of bacterial viability", "setting": "[2]; 1 μg/mL, 24 hours", "result": ">4.8", "unit": "log10 CFU/mL"},
      {"measurement": "Loss of bacterial viability", "setting": "[2]; 10 μg/mL, 1 hour", "result": ">3.5", "unit": "log10 CFU/mL"},
      {"measurement": "Loss of bacterial viability", "setting": "[2]; 10 μg/mL, 3 hours", "result": ">4", "unit": "log10 CFU/mL"},
      {"measurement": "Loss of bacterial viability", "setting": "[2]; 10 μg/mL, 24 hours", "result": ">4.8", "unit": "log10 CFU/mL"},
      {"measurement": "bacterial viability after treatment (time-kill)", "setting": "[2]; 1, 3 and 24 hours, 1 μg/mL and 10 μg/mL, CAA + […] human serum", "result": "multi-log fold decreases"}
    ]}
  ]
}
